In patent US9695155B2, “Herbicidal substituted pyrimidinyloxy benzene compounds” (E. I. DU PONT DE NEMOURS AND COMPANY, priority 2013, dated 2017):

Columns and labels:
galium = test: Test D postemergence; type: in vivo, Galium aparine; details: Galium, post-emergence
Summary of the method: (§1)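 Greenhouse herbicide screen. Sowing into silt loam for preemergence application; foliar application to 2–18 cm seedlings in potting mix for postemergence. 0–100 visual control rating after 7–21 d.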

field violet = test: Test D preemergence; type: in vivo, Viola arvensis; details: Viola arvensis, pre-emergence
Summary of the method: as §1

bluegrass = test: Test D preemergence; type: in vivo, Poa annua; details: Poa annua, pre-emergence
Summary of the method: as §1

deadnettle = test: Test D postemergence; type: in vivo, Lamium amplexicaule; details: Lamium amplexicaule, post-emergence
Summary of the method: as §1

blackgrass = test: Test D preemergence; type: in vivo, Alopecurus myosuroides; details: Alopecurus myosuroides, pre-emergence
Summary of the method: as §1

oilseed rape = test: Test D postemergence; type: in vivo, Brassica napus; details: Brassica napus, post-emergence
Summary of the method: as §1

wild buckwheat = test: Test D postemergence; type: in vivo, Polygonum convolvulus; details: Fallopia convolvulus, post-emergence, Postemergence, scale 0 to 100 (0 no effect, 100 complete control), read-out: Plant response rating, Buckwheat, Wild
Summary of the method: as §1

chamomile = test: Test D postemergence; type: in vivo, Matricaria inodora; details: Tripleurospermum inodorum, post-emergence
Summary of the method: as §1

canarygrass = test: Test D postemergence; type: in vivo, Phalaris minor; details: Phalaris minor, post-emergence
Summary of the method: as §1

Italian ryegrass [1] = test: Test D preemergence; type: in vivo, Lolium multiflorum; details: Lolium multiflorum, pre-emergence
Summary of the method: as §1

kochia = test: Test D preemergence; type: in vivo, Kochia scoparia; details: Bassia scoparia, pre-emergence
Summary of the method: as §1

Italian ryegrass [2] = test: Test D postemergence; type: in vivo, Lolium multiflorum; details: Lolium multiflorum, post-emergence
Summary of the method: as §1

In the case of `FC(F)(F)c1cn(-c2ccccc2Oc2ncc(Cl)cn2)nn1` [Compound 166, 5-chloro-2-[2-[4-(trifluoromethyl)-1H-1,2,3-triazol-1-yl]phenoxy]pyrimidine], the pest or weed control at 16 g/ha (galium; 16 g ai/ha, scale 0-100, read-out: Plant response rating, Galium) is reported as 70%, the pest or weed control at 31 g/ha (galium; 31 g ai/ha, scale 0 to 100 (0 no effect, 100 complete control), read-out: Plant response rating, Galium) is reported as 75% and the pest or weed control at 62 g/ha (galium; 62 g ai/ha, scale 0 to 100 (0 no effect, 100 complete control), read-out: Plant response rating, Galium) is reported as 80%. It also gave a pest or weed control at 125 g/ha (galium; 125 g ai/ha, scale 0 to 100 (0 no effect, 100 complete control), read-out: Plant response rating, Galium) of 90%, a pest or weed control at 16 g/ha (field violet; 16 g ai/ha, scale 0 (no effect) to 100 (complete control), read-out: Plant response rating, Field Violet) of 70% and a pest or weed control at 31 g/ha (field violet; 31 g ai/ha, scale 0-100, read-out: Plant response rating, Field Violet) of 100%. It also gave a pest or weed control at 62 g/ha (field violet; 62 g ai/ha, scale 0-100, read-out: Plant response rating, Field Violet) of 100%, a pest or weed control at 125 g/ha (field violet; 125 g ai/ha, scale 0-100, read-out: Plant response rating, Field Violet) of 100% and a pest or weed control at 16 g/ha (bluegrass; 16 g ai/ha, scale 0 (no effect) to 100 (complete control), read-out: Plant response rating, Bluegrass) of 5%. For the same compound, the pest or weed control at 31 g/ha (bluegrass; 31 g ai/ha, scale 0-100, read-out: Plant response rating, Bluegrass) was 20%, the pest or weed control at 62 g/ha (bluegrass; 62 g ai/ha, scale 0-100, read-out: Plant response rating, Bluegrass) was 65% and the pest or weed control at 125 g/ha (bluegrass; 125 g ai/ha, scale 0-100, read-out: Plant response rating, Bluegrass) was 100%. It also gave a pest or weed control at 16 g/ha (deadnettle; 16 g ai/ha, scale 0-100, read-out: Plant response rating, Deadnettle) of 40%, a pest or weed control at 31 g/ha (deadnettle; 31 g ai/ha, scale 0 to 100 (0 no effect, 100 complete control), read-out: Plant response rating, Deadnettle) of 60% and a pest or weed control at 62 g/ha (deadnettle; 62 g ai/ha, scale 0 to 100 (0 no effect, 100 complete control), read-out: Plant response rating, Deadnettle) of 65%. It also gave a pest or weed control at 125 g/ha (deadnettle; 125 g ai/ha, scale 0 to 100 (0 no effect, 100 complete control), read-out: Plant response rating, Deadnettle) of 70%, a pest or weed control at 16 g/ha (blackgrass; 16 g ai/ha, scale 0 (no effect) to 100 (complete control), read-out: Plant response rating, Blackgrass) of 10% and a pest or weed control at 31 g/ha (blackgrass; 31 g ai/ha, scale 0-100, read-out: Plant response rating, Blackgrass) of 55%. The pest or weed control at 62 g/ha (blackgrass; 62 g ai/ha, scale 0-100, read-out: Plant response rating, Blackgrass) was 70%, the pest or weed control at 125 g/ha (blackgrass; 125 g ai/ha, scale 0-100, read-out: Plant response rating, Blackgrass) was 95% and the plant injury at 16 g/ha (oilseed rape; 16 g ai/ha, scale 0-100, read-out: Plant response rating, Oilseed Rape) was 60%. The plant injury at 31 g/ha (oilseed rape; 31 g ai/ha, scale 0 to 100 (0 no effect, 100 complete control), read-out: Plant response rating, Oilseed Rape) was 65%, the plant injury at 62 g/ha (oilseed rape; 62 g ai/ha, scale 0 to 100 (0 no effect, 100 complete control), read-out: Plant response rating, Oilseed Rape) was 95% and the plant injury at 125 g/ha (oilseed rape; 125 g ai/ha, scale 0 to 100 (0 no effect, 100 complete control), read-out: Plant response rating, Oilseed Rape) was 100%. It also gave a pest or weed control at 16 g/ha (wild buckwheat; 16 g ai/ha) of 70%, a pest or weed control at 31 g/ha (wild buckwheat; 31 g ai/ha) of 95% and a pest or weed control at 62 g/ha (wild buckwheat; 62 g ai/ha) of 95%. For the same compound, the pest or weed control at 125 g/ha (wild buckwheat; 125 g ai/ha) was 100%, the pest or weed control at 16 g/ha (chamomile; 16 g ai/ha, scale 0-100, read-out: Plant response rating, Chamomile) was 5% and the pest or weed control at 31 g/ha (chamomile; 31 g ai/ha, scale 0 to 100 (0 no effect, 100 complete control), read-out: Plant response rating, Chamomile) was 5%. For the same compound, the pest or weed control at 62 g/ha (chamomile; 62 g ai/ha, scale 0 to 100 (0 no effect, 100 complete control), read-out: Plant response rating, Chamomile) was 10%, the pest or weed control at 125 g/ha (chamomile; 125 g ai/ha, scale 0 to 100 (0 no effect, 100 complete control), read-out: Plant response rating, Chamomile) was 15% and the pest or weed control at 16 g/ha (canarygrass; 16 g ai/ha, scale 0-100, read-out: Plant response rating, Canarygrass) was 20%. For the same compound, the pest or weed control at 31 g/ha (canarygrass; 31 g ai/ha, scale 0 to 100 (0 no effect, 100 complete control), read-out: Plant response rating, Canarygrass) was 35%, the pest or weed control at 62 g/ha (canarygrass; 62 g ai/ha, scale 0 to 100 (0 no effect, 100 complete control), read-out: Plant response rating, Canarygrass) was 50% and the pest or weed control at 125 g/ha (canarygrass; 125 g ai/ha, scale 0 to 100 (0 no effect, 100 complete control), read-out: Plant response rating, Canarygrass) was 55%. For the same compound, the pest or weed control at 16 g/ha (Italian ryegrass [1]; 16 g ai/ha, scale 0 (no effect) to 100 (complete control), read-out: Plant response rating, Ryegrass, Italian) was 20%, the pest or weed control at 31 g/ha (Italian ryegrass [1]; 31 g ai/ha, scale 0 (no effect) to 100 (complete control), read-out: Plant response rating, Ryegrass, Italian) was 40% and the pest or weed control at 62 g/ha (Italian ryegrass [1]; 62 g ai/ha, scale 0-100, read-out: Plant response rating, Ryegrass, Italian) was 60%. The pest or weed control at 125 g/ha (Italian ryegrass [1]; 125 g ai/ha, scale 0-100, read-out: Plant response rating, Ryegrass, Italian) was 85%, the pest or weed control at 16 g/ha (kochia; 16 g ai/ha, scale 0 (no effect) to 100 (complete control), read-out: Plant response rating, Kochia) was 35% and the pest or weed control at 31 g/ha (kochia; 31 g ai/ha, scale 0-100, read-out: Plant response rating, Kochia) was 65%. For the same compound, the pest or weed control at 62 g/ha (kochia; 62 g ai/ha, scale 0-100, read-out: Plant response rating, Kochia) was 95%, the pest or weed control at 125 g/ha (kochia; 125 g ai/ha, scale 0-100, read-out: Plant response rating, Kochia) was 100% and the pest or weed control at 16 g/ha (Italian ryegrass [2]; 16 g ai/ha, scale 0-100, read-out: Plant response rating, Ryegrass, Italian) was 10%. It also gave a pest or weed control at 31 g/ha (Italian ryegrass [2]; 31 g ai/ha, scale 0 to 100 (0 no effect, 100 complete control), read-out: Plant response rating, Ryegrass, Italian) of 20%, a pest or weed control at 62 g/ha (Italian ryegrass [2]; 62 g ai/ha, scale 0 to 100 (0 no effect, 100 complete control), read-out: Plant response rating, Ryegrass, Italian) of 25% and a pest or weed control at 125 g/ha (Italian ryegrass [2]; 125 g ai/ha, scale 0 to 100 (0 no effect, 100 complete control), read-out: Plant response rating, Ryegrass, Italian) of 40%.
